Measurements taken from patent US20220298486A1, “UROTHELIAL CELL INDUCTION AGENT AND METHOD FOR INDUCING UROTHELIAL CELLS” (CellAxia Inc, priority 2019, published 2022).

Key:
Assay type in all cases: cell-based, human
[1] = test system: aHDFs into which F, T, L, and K had been introduced; test: examination of medium components (modified Uromedium) for selective proliferation of dUCs; conditions: for influence of concentration of the component on UPK2 mRNA: Uromedium with modified concentration
Procedure: (A) aHDFs into which F, T, L, and K had been introduced were cultured in “Uromedium” medium with modified concentrations of insulin, hydrocortisone, EGF, and IBMX. On Day 21, total RNA was extracted from aHDFs and control aHDFs free of gene introduction, and the gene expression level of UPK2 was measured by real-time RT-PCR. The values shown by mean±SD were normalized by β-actin mRNA expression and shown relative to the value of aHDFs free of gene introduction as 1.0 (N=3). (B) Phase-contrast microscopic images of aHDFs into which F, T, L, and K were introduced, and cultured for 21 days in “Uromedium” medium in which the concentration of hydrocortisone was modified to 0-fold and the concentration of IBMX was modified to 10-fold. Imaging magnification: ×10 (C) Phase-contrast microscopic images of aHDFs into which F, T, L, and K were introduced, and cultured for 21 days in “Uromedium” medium with or without addition of 1 μM tranylcypromine. The bar is 100 μm. (D) Phase-contrast microscopic images of aHDFs into which F, T, L, and K were introduced or not introduced, and cultured for 21 days in “Uromedium” medium or “UCM” medium. The bar is 100 μm.
“Uromedium” medium was produced according to the method of Osborn et al. (Osborn S L, (2014) Stem Cell Transl Med 3(5):610-619.). In summary fashion, the “Uromedium” medium is composed of EpiLife™ medium supplemented with 60 μM calcium (Gibco; MEP1500CA), 60 μg/mL bovine brain hypophysis extract (Gibco), 5 μg/mL human gene recombinant insulin (Diagnocine), 500 ng/mL hydrocortisone (Tokyo Chemical Industry Co., Ltd.), gentamicinamphotericin (Gibco), 2% FBS, 0.1 ng/mL human gene recombinant epidermal growth factor (EGF) (RSD), and 100 μM 3-isobutyl 1-methylxanthine (IBMX) (Sigma-Aldrich).
The “UCM” medium is composed of EpiLife™ medium supplemented with 60 μM calcium, 60 μg/mL bovine brain hypophysis extract, 5 μg/mL human gene recombinant insulin, gentamicinamphotericin, 2% FBS, 0.01 ng/mL human gene recombinant EGF, 1 mM IBMX, and 1 μM tranylcypromine (Abcam).

aHDFs [2] = test: epithelial (urothelial) cell colony formation, phase contrast microscope observation; conditions: F, T, L, K-introduced aHDFs; plates uncoated or coated with collagen, poly-L-lysine, laminin; day 21
Procedure: (§1) aHDFs were seeded on a laminin-coated 12-well plate or a laminin-uncoated 12-well plate, and the gene was introduced using a retroviral vector. The cells were cultured in CnT-Prime medium or other medium, and 21 days later, observation with a phase contrast microscope, real-time PCR, and analysis of immunocytochemistry were performed. The cells were passaged in fresh culture plates and used for RNA sequencing and penetration assay. In the in vivo experiment, cells into which F, T, L, and K had been introduced were transurethrally transplanted into the injured bladder cavity of an interstitial cystitis mouse through a catheter.
(§2) aHDFs were seeded in 12-well plates coated with atelocollagen (KOKEN; I-PC30), poly-L-lysine (ScienCell), or laminin (Easy iMatrix-511 silk) at a density of 3×10^4 cells/well. After 24 hr, the medium was replaced with the retroviral suspension that was filtrated through a 0.45 μm pore filter (Toyo Roshi Kaisha, Ltd., ADVANTEC) and supplemented with 4 μg/mL polybrene. The next day, the culture supernatant was replaced with Standard Medium free of virus, and replaced with CnT-Prime or “UCM” medium 3 days later. The culture medium was changed every 3 or 4 days.

aHDFs [3] = test: real-time RT-PCR of marker mRNA in aHDFs after retroviral gene introduction; conditions: F, T, L, K-introduced aHDFs; plates uncoated or coated with collagen, poly-L-lysine, laminin; day 21
Procedure: as §1, §2
Total RNA was extracted using RNeasy Mini Kit (Qigen) according to the manufacturer's protocol. […] The relative mRNA expression levels were calculated from the following formula: […]

N[C@@H]1C[C@H]1c1ccccc1 (racemic) [tranylcypromine]
formation of urothelial cell colonies ([1]; Uromedium with addition of 1 μM tranylcypromine, 21 days): enhanced

CC(C)Cn1c(=O)n(C)c(=O)c2[nH]cnc21 [IBMX, 3-isobutyl 1-methylxanthine]
expression of UPK2 mRNA ([1]; 1-10 mM IBMX in Uromedium, day 21): played a beneficial role | epithelial cell colony formation ([1]; medium containing 10 mM IBMX, 21 days): form epithelial cell colonies

C[C@]12CCC(=O)C=C1CC[C@@H]1[C@@H]2[C@@H](O)C[C@@]2(C)[C@H]1CC[C@]2(O)C(=O)CO [hydrocortisone]
influence of concentration of the component on UPK2 mRNA ([1]; day 21): not definitive

EGF: human gene recombinant epidermal growth factor
mRNA expression of UPK2 ([1]; addition of 0.01-1 ng/mL EGF, day 21): increased

insulin: human gene recombinant insulin
influence of concentration of the component on UPK2 mRNA ([1]; day 21): not definitive

laminin
epithelial cell colony formation by plate coating (aHDFs [2]): formed only in laminin-coated plates | expression of UPK1b and UPK2 mRNAs by plate coating (aHDFs [3]): the highest
